# Assay results: patent US6352630B1, “Electrochemical system for determining blood coagulation time” (Asulab S.A., priority 1999, dated 2002)
# Biological target: T1, thrombin enzyme (Homo sapiens, UniProt P00734)
# T1 construct: from tissue; host or cells: whole blood (drop of blood, 10 µl)
# Test: specificity of the specific reagent vis-à-vis the thrombin enzyme, progressive inhibition by r-hirudin
# Format: biochemical
# Details: whole blood, thrombin inhibited by increasing r-hirudin
# Description: In the experiments reported hereinafter, potentiostatic measurements were performed by chronoamperometry by means of a potentiostat PGP 201 connected to the Vm1 software of Radiometer (Copenhagen) allowing the following conditions to be obtained:
# The surface of the working electrode of the sensor used is 0.035 cm^2 and the sample quantity, drop of blood, or reference solution is 10 μl. the recording of measurements starts 10 seconds after the sample is deposited. The oligopeptide used, hereinafter designated according to use by <>, selected from those indicated previously, is:
# Given that whole blood contains extremely numerous constituents, the present experiment allows it to be shown that only the thrombin enzyme is capable of cutting the specific reagent substrate. The experiment is performed in the optimisation conditions defined by experiment 3 (namely PC/PS in the ratio 25/75, Hepes buffer and lyophilisation) starting with a dilution in equal parts of blood and buffer solution and progressively inhibiting the thrombin enzyme by increasing concentrations of r-hirudin (r-hirudin 2000 ATU/bulb, available from Pentapharm AG, Basel, Switzerland) which replace the buffer solution, preferably having checked that the factor Xa is not inhibited by r-hirudin. […]
substance,measurement,value
"Tos-Gly-Pro-Arg-3-chloro-4-hydroxyanilide, 2HCl [substrate]","cutting of the substrate, selectivity",selectively cut off by thrombin
